Source: patent US20200216454A1, “BIFUNCTIONAL MOLECULES FOR HER3 DEGRADATION AND METHODS OF USE” (Dana-Farber Cancer Institute, Inc., priority 2016, published 2020)

Key:
Her3 [1] = target: T1, Her3 (Homo sapiens, UniProt P21860); assay: LanthaScreen Eu kinase binding assay; design: purchased Life Technologies; conditions: read-out: Binding Affinities (IC50)
Procedure: Lantha screening is performed by following the method reported in Nature Chemical Biology, 10, 1006-1012 (2014).
Binding affinities (IC50) of representative compounds were measured by the Life Technologies LanthaScreen Eu kinase binding assay, which was previously described (Xie T. et al., Nat. Chem. Biol. 2014, 10, 1006-1012).
Lantha screening was performed by following the method reported in Nature Chemical Biology, 10, 1006-1012 (2014).
Target sequence in this assay (P21860 20-1342, species assumed): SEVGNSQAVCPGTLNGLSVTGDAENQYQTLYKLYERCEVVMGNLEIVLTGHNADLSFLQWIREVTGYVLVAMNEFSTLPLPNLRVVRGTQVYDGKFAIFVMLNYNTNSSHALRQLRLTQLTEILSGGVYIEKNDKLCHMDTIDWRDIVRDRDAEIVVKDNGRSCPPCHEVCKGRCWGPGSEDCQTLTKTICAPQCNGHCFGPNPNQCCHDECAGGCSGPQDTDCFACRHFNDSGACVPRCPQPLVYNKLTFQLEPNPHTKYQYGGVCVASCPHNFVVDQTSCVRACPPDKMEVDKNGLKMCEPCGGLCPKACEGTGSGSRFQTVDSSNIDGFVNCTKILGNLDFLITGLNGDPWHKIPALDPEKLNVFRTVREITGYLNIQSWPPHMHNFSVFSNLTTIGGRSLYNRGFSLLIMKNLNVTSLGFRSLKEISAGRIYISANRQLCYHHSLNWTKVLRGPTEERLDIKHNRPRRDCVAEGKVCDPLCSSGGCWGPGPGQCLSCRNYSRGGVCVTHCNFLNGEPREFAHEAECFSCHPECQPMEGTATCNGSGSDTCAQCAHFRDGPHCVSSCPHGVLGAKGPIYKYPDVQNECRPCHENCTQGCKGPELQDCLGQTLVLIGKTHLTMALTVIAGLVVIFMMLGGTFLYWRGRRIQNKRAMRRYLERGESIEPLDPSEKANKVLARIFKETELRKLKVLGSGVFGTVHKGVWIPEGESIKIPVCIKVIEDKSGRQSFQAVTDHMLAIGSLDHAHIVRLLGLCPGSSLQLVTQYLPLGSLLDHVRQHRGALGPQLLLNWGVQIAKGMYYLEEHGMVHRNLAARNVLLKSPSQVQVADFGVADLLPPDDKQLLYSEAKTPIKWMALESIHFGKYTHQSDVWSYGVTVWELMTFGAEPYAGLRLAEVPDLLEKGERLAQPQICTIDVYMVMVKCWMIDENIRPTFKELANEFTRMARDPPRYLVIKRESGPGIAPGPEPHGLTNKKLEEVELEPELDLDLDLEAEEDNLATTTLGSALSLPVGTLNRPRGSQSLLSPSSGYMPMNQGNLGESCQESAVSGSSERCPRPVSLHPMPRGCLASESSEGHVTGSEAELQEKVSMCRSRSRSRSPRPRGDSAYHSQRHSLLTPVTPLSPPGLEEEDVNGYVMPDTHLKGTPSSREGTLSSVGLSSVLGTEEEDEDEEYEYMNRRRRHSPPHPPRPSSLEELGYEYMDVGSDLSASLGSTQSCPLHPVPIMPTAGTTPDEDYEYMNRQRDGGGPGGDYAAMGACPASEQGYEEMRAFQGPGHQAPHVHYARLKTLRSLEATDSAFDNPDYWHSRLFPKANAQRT

Her3 [2] = target: T1, Her3; assay: Her3 protein degradation by Western blot; assay type: cell-based; design: endogenous in cells; host or cells: PC9-GR4; Ovacar 8; key: (+): Her3 protein was degraded; (−): Her3 protein was not degraded; conditions: PC9-GR4 or Ovacar 8 cell lines, 2 μM, 4 hour and 8 hour
Procedure: Cells are seeded at the desired density the day before treatment starts with bifunctional compounds of the application at various concentration. After 4 to 12 hrs, cells are washed with buffer and lysed. The lysates are centrifuged and the supernatant is collected. Protein concentrations are measured using a protein assay kit, such as the BCA protein assay kit, Pierce, catalog number 23225) and normalized. Samples are run on a SDS-PAGE gel, and transferred to a PVDF membrane. The PVDF membrane is probed with the appropriate antibody.
Her3 protein degradation was assessed by Western blots after treatment of PC9-GR4 cell lines or Ovacar 8 cell lines with 2 μM of representative compounds for 4 hour and 8 hour.
Cells were seeded at a density of […] per 6 cm plate the day before treatment started with representative compounds of the application at the indicated concentration. After 4 to 12 hours, cells were washed with phosphate-buffered saline. Lysis buffer included 50 mM Tris-HCl, 150 mM NaCl, 1% NP-40, and 5 mM EDTA, pH 7.4+/−0.2, Roche PhosSTOP phosphatase inhibitor cocktail tablets and Roche Complete Protease inhibitor cocktail tablets. Cell lysis was accomplished by the addition of lysis buffer for 5-10 minutes on ice. Lysates were centrifuged in a microcentrifuge at 14,000 r.p.m. for 15 minutes at 4° C. and the supernatant was collected. Protein concentrations were measured using BCA protein assay kit (Pierce, catalog number 23225) and normalized. Samples were run on a 4%-12% SDS-PAGE gel at 120 V. After transfer, the PVDF membrane was probed with anti-Her3 antibody, Santa Cruz, catalog number sc-285 at 1:1000 dilution.
Target sequence in this assay (P21860 20-1342): as the sequence (P21860 20-1342, species assumed) above

Ovacar 5 = assay: Anti-proliferation MTS assay, Ovacar 5; assay type: cell-based; conditions: 72 h, Ovacar 5 cells, 3 days, read-out: Cell lines (EC50, μM) Ovacar 5
Procedure: (§1) Cells are seeded and incubated for 3 d after bifunctional compounds of the application are added. Cell viability is measured via MTS Assay. This assay uses a colorimetric method to determine the number of viable cells based on the bioreduction of MTS by cells to a formazan product that is soluble in cell culture medium and can be detected spectrophotometrically. In a typical experiment, the supernatant is removed and replaced by 100 μl of RPMI media supplemented with MTS reagent and PMS. The plates are measured with Perkin Elmer EnVision after reaching an optical density (OD) of 1.0-2.0 at a wavelength of 490 nm. The cell numbers are normalized compared to DMSO control, and the EC50 values are calculated using GraphPad Prism.
(§2) Five cell lines, PC9-GR4, 826-GR6, Ovacar 8, A549, and Ovacar 5 were grown and treated with representative compounds Viability of the cells after the treatment was assessed by MTS assay.
(§3) The anti-proliferation assay was carried out using 96-well clear bottom plates. […] Cell viability was measured via MTS Assay. This assay uses a colorimetric method to determine the number of viable cells based on the bioreduction of MTS by cells to a formazan product that is soluble in cell culture medium and can be detected spectrophotometrically. […] The plates were measured with Perkin Elmer EnVision after reaching an optical density (OD) of 1.0-2.0 at a wavelength of 490 nm. […]

PC9-GR4 = assay: Anti-proliferation MTS assay, PC9-GR4; assay type: cell-based; conditions: 72 h, PC9-GR4 cells, 3 days, read-out: Cell lines (EC50, μM) PC9-GR4
Procedure: as §1, §2, §3

826-GR6 = assay: Anti-proliferation MTS assay, 826-GR6; assay type: cell-based; conditions: 72 h, 826-GR6 cells, 3 days, read-out: Cell lines (EC50, μM) 826-GR6
Procedure: as §1, §2, §3

A549 = assay: Anti-proliferation MTS assay, A549; assay type: cell-based; conditions: Homo sapiens, 72 h, A549 cells, 3 days, read-out: Cell lines (EC50, μM) A549
Procedure: as §1, §2, §3

Ovacar 8 = assay: Anti-proliferation MTS assay, Ovacar 8; assay type: cell-based; conditions: 72 h, Ovacar 8 cells, 3 days, read-out: Cell lines (EC50, μM) Ovacar 8
Procedure: as §1, §2, §3

| SMILES | IC50 (Her3 [1]) [µM] | Her3 Degradation (Her3 [2]) | also measured |
| --- | --- | --- | --- |
| Nc1ncnc2c1c(-c1ccc(Oc3ccccc3)c([N+](=O)[O-])c1)nn2C1CCN(CC(=O)NCCCCNC(=O)COc2cccc3c2C(=O)N(C2CCC(=O)NC2=O)C3=O)CC1 (stereo not drawn) [Compound PP7] | 0.01 to 0.1 | − |  |
| C=CC(=O)Nc1cc(-c2nn(C3CCN(CC(=O)N[C@@H](C(=O)N4C[C@@H](O)C[C@@H]4C(=O)NCc4ccc(-c5scnc5C)cc4)C(C)(C)C)CC3)c3ncnc(N)c23)ccc1Oc1ccccc1 [Compound PP2] |  | + | EC50 (Ovacar 5): 5 to 15 µM; EC50 (PC9-GR4): 5 to 15 µM; EC50 (826-GR6): 5 to 15 µM; EC50 (A549): 5 to 15 µM; EC50 (Ovacar 8): < 5 µM |
| Cc1ncsc1-c1ccc(CNC(=O)[C@@H]2C[C@@H](O)CN2C(=O)[C@@H](NC(=O)CCOCCOCCOCCN2CCC(n3nc(-c4ccc(Oc5ccccc5)c([N+](=O)[O-])c4)c4c(N)ncnc43)CC2)C(C)(C)C)cc1 [Compound PP8] | > 0.1 | + | EC50 (PC9-GR4): > 15 µM |
| C=CC(=O)Nc1cc(-c2nn(C3CCN(CCOCCOCCOCCC(=O)N[C@@H](C(=O)N4C[C@@H](O)C[C@@H]4C(=O)NCc4ccc(-c5scnc5C)cc4)C(C)(C)C)CC3)c3ncnc(N)c23)ccc1Oc1ccccc1 [Compound PP1] |  | − |  |

Further lines, with some results ahead:

| IC50 (Her3 [1]) [µM] | Her3 Degradation (Her3 [2]) | SMILES | also measured |
| --- | --- | --- | --- |
|  | + | C=CC(=O)Nc1cc(-c2nn(C3CCN(CC(=O)NCCCCCCCCNC(=O)COc4cccc5c4C(=O)N(C4CCC(=O)NC4=O)C5=O)CC3)c3ncnc(N)c23)ccc1Oc1ccccc1 (stereo not drawn) [Compound PP4] | EC50 (Ovacar 8): 5 to 15 µM |
|  | + | C=CC(=O)Nc1cc(-c2nn(C3CCN(CC(=O)NCCCCNC(=O)COc4cccc5c4C(=O)N(C4CCC(=O)NC4=O)C5=O)CC3)c3ncnc(N)c23)ccc1Oc1ccccc1 (stereo not drawn) [Compound PP3] |  |
| 0.01 to 0.1 | − | Nc1ncnc2c1c(-c1ccc(Oc3ccccc3)c([N+](=O)[O-])c1)nn2C1CCN(CC(=O)NCCOCCOCCOCCNC(=O)COc2cccc3c2C(=O)N(C2CCC(=O)NC2=O)C3=O)CC1 (stereo not drawn) [Compound PP6] |  |
|  | − | C=CC(=O)Nc1cc(-c2nn(C3CCN(CC(=O)NCCCOCCOCCOCCCNC(=O)COc4cccc5c4C(=O)N(C4CCC(=O)NC4=O)C5=O)CC3)c3ncnc(N)c23)ccc1Oc1ccccc1 (stereo not drawn) [Compound PP5] |  |
